Results published in patent US9463188B2, “Osteopontin production inhibitor containing dictyopyrone derivative or dihydrodictyopyrone derivative as active ingredient” (TOHOKU UNIVERSITY, priority 2013, dated 2016).

System: A549/OPNluc cells
Assay: WST assay (cell growth inhibition)
Format: cell-based
Conditions: Homo sapiens, 48±4 hours, WST-1, read-out: IC50 (concentration for 50% inhibition of cell growth)
Description: A reporter vector pOPN1-luc obtained by inserting a human OPN promoter sequence (−765 to 23) into the multiple cloning site of pGL-3 basic vector (Promega) expresses luciferase when transfected into animal cells. This pOPN1-luc was transfected into a human non-small cell lung cancer-derived cell line A549 together with pPUR (Clontech) that expresses a puromycin resistance gene (puromycin-N-acetyl-transferase gene), and cells that could grow in a puromycin-supplemented medium and expressed luciferase were selected. The selected cells were named A549/OPNluc cells and used for observation of luciferase expression inhibitory effect under control of OPN promoter, as described later.
A test compound was added to a culture liquid containing A549/OPNluc cells to observe its influence on the amount of luciferase expressed in the cells. Here, it can be considered that when the test compound has cytotoxity or cell growth-suppressing effect, the total expression level of luciferase is reduced due to a reduction in the number of living cells that depends on the concentration of the test compound, and therefore the luciferase expression inhibitory effect of the test compound under control of OPN promoter cannot be properly evaluated. For this reason, WST assay for quantification of cell proliferation ability or cell viability by colorimetric measurement was first performed to determine IC50 (concentration for 50% inhibition of cell growth) of the test compound for cell growth. Then, luciferase activity measurement was performed to determine EC50 (concentration for 50% inhibition of luciferase expression) of the test compound for luciferase expression under control of OPN promoter.
A549/OPNluc cells were suspended in DMEM medium containing 10% fetal calf serum (FCS) and 1% penicillin/streptomycin (P/S) at 3×10^4 cells/mL to obtain a cell suspension, and 100 μL of the cell suspension was dispensed into each well of a 96-well plate. In order to perform the assay in triplicate, 3 wells were prepared for a control group and 3 wells were prepared for each test compound-treated group at each concentration. After the dispensing, the 96-well plate was incubated in a CO2 incubator (at 37° C. and 5% CO2) for 24±4 hours.
The test compound was dissolved in dimethylsulfoxide (DMSO) to obtain a 50 mmol/L solution, and the test compound solution was stored at −80° C. The test compound solution was diluted with DMSO in 2-fold dilution series (usually, in the range of 0.31 mmol/L to 20 mmol/L) to prepare test compound solutions whose concentration varied by two fold for WST assay.
Only DMSO (control) or the diluted test compound (sample) solution was dispensed in an amount of 0.5 μL into each well containing the cell suspension (200-fold dilution). The solution in each well was mixed with a vortex mixer, and then the 96-well plate was incubated in a CO2 incubator (at 37° C. and 5% CO2) for 48±4 hours. Then, 10 μL of Premix WST-1 Reagent (TAKARA BIO INC.) was added to each well. The solution in each well was mixed with a vortex mixer, and then the 96-well plate was incubated at 37° C. and 5% CO2. After 60 minutes or 120 minutes, absorbance values (450 nm) were measured using a microplate reader (Bio-Rad; Benchmark or Thermo Scientific; Varioskan Flash).
The absorbance values of the control wells and the absorbance values of the sample wells at each concentration were input into an Excel file to determine the percentages of absorbance values of the sample wells at each concentration with respect to the average of absorbance values of the control wells. From the determined values, a fitted curve was determined by the method of least squares to calculate IC50.

IC50: 56.2 µM
SMILES: CCCCCCCCCCCC(=O)[C@H]1C(=O)O[C@@H](C)C[C@@H]1C [Chemical formula 3]
